Assay results published in patent US12516056B2, “Compounds for inhibition of janus kinase 1” (MANKIND PHARMA LTD., priority 2019, dated 2026).

Tests used:
Recombinant JAK1 = biological target: T1, Recombinant JAK1 (Homo sapiens, UniProt P23458); assay: JAK biochemical assay (LANCE Ultra TR-FRET), JAK1; settings: recombinant JAK1, TR-FRET; read-out: Biochemical Assay (μM) JAK1
T1 construct: purchased Carna Biosciences
Procedure, shortened: (§1)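 % inhibition relative to vehicle was derived from TR-FRET signal proportional to ULight-substrate phosphorylation. Reactions used recombinant kinase in HEPES pH 7.5 buffer containing EGTA, MgCl2, DTT and Tween-20.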

Recombinant JAK2 = biological target: T2, Recombinant JAK2 (Homo sapiens, UniProt O60674); assay: JAK biochemical assay (LANCE Ultra TR-FRET), JAK2; settings: recombinant JAK2, TR-FRET; read-out: Biochemical Assay (μM) JAK2
T2 construct: purchased Carna Biosciences
Procedure, shortened: as §1

Recombinant JAK3 = biological target: T3, Recombinant JAK3 (Homo sapiens, UniProt P52333); assay: JAK biochemical assay (LANCE Ultra TR-FRET), JAK3; settings: recombinant JAK3, TR-FRET; read-out: Biochemical Assay (μM) JAK3
T3 construct: purchased Carna Biosciences
T3 sequence (P52333 1-1124): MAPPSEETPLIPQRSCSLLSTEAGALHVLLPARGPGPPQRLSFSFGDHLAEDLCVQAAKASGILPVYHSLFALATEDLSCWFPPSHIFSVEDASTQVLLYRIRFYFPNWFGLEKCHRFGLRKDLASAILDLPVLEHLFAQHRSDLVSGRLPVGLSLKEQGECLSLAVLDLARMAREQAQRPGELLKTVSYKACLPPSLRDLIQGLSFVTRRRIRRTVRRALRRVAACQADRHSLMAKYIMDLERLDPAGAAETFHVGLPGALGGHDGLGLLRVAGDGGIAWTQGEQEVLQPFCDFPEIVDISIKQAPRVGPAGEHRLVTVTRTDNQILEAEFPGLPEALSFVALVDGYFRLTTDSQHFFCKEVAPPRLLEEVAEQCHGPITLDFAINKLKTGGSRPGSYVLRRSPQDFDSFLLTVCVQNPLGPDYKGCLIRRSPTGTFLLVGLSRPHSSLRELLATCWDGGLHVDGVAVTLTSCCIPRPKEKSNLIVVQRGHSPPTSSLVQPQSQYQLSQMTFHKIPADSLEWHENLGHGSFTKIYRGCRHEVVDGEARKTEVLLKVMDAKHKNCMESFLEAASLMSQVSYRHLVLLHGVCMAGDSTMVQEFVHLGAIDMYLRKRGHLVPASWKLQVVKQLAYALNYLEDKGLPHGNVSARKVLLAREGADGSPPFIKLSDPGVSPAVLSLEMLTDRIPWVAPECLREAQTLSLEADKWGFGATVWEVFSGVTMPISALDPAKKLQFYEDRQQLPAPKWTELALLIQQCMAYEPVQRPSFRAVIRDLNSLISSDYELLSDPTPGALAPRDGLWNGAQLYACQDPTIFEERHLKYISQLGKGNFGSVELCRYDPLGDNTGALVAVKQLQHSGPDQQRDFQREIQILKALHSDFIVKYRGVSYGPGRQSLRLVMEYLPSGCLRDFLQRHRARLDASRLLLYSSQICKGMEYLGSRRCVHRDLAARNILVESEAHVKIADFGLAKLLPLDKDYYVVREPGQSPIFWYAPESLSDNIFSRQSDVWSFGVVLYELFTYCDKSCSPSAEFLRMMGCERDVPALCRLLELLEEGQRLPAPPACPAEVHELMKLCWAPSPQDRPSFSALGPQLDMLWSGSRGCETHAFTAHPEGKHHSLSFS
Procedure, shortened: as §1

Recombinant TYK2 = biological target: T4, Recombinant TYK2 (Homo sapiens, UniProt P29597); assay: JAK biochemical assay (LANCE Ultra TR-FRET), TYK2; settings: recombinant TYK2, TR-FRET; read-out: Biochemical Assay (μM) TYK2
T4 construct: purchased Carna Biosciences
Procedure, shortened: as §1

[1] = system: STAT3 phosphorylation by IL-6 in TF-1 cells; assay: JAK cellular assay: STAT3 phosphorylation by IL-6 in TF-1 cells (HTRF); assay type: cell-based; settings: Homo sapiens, TF-1, TF-1 cells, IL-6 30 ng/ml, pSTAT3 HTRF; read-out: Cell Based Assay (μM) TF-1/IL-6/pSTAT3
Procedure, shortened: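 Phospho-STAT3 (IL-6, 30 ng/ml) and phospho-STAT5 (GMCSF, 5 ng/ml) read by HTRF in lysates after 20 min cytokine exposure, minus unstimulated-cell background. Cells were serum-starved overnight, plated at 120,000/well, given compound 30 min at 37 °C beforehand; DMSO 0.2% final.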

[2] = system: STAT5 phosphorylation by GMCSF in TF-1 cells; assay: JAK cellular assay: STAT5 phosphorylation by GMCSF in TF-1 cells (HTRF); assay type: cell-based; settings: Homo sapiens; TF-1 cells, GMCSF 5 ng/ml, pSTAT5 HTRF; read-out: Cell Based Assay (μM) TF-1/GMCSF/pSTAT5
Experimental: TF-1 cells were starved overnight in OptiMEM medium with 0.5% charcoal stripped fetal bovine serum, 0.1 mM nonessential amino acids (NEAA), 1 mM sodium pyruvate and without phenol red in CO2 incubator maintained at 37° c. Next day, cells were resuspended in RPMI without phenol red and dispensed into a 96 well plate at a final cell density of 1,20,000 cells per well. Compounds were diluted in DMSO and added to cells and incubated for 30 minutes in CO2 incubator maintained at 37° c. Final DMSO concentration in cell based assay was 0.2%. Human recombinant cytokines, IL-6 (30 ng/ml) and GMCSF (5 ng/ml) were added to the plate containing cells along with compound and incubated for 20 minutes with gentle tapping at every 5 minutes once. Compound mediated effects on STAT3 and STAT5 phosphorylation was measured in the lysates prepared by using CISBIO pSTAT3 and pSTAT5 detection kits by HTRF method. Background signal obtained from cells which were not activated with cytokines, was subtracted from vehicle controls and compound treated wells.

T1 sequence (P23458 whole entry): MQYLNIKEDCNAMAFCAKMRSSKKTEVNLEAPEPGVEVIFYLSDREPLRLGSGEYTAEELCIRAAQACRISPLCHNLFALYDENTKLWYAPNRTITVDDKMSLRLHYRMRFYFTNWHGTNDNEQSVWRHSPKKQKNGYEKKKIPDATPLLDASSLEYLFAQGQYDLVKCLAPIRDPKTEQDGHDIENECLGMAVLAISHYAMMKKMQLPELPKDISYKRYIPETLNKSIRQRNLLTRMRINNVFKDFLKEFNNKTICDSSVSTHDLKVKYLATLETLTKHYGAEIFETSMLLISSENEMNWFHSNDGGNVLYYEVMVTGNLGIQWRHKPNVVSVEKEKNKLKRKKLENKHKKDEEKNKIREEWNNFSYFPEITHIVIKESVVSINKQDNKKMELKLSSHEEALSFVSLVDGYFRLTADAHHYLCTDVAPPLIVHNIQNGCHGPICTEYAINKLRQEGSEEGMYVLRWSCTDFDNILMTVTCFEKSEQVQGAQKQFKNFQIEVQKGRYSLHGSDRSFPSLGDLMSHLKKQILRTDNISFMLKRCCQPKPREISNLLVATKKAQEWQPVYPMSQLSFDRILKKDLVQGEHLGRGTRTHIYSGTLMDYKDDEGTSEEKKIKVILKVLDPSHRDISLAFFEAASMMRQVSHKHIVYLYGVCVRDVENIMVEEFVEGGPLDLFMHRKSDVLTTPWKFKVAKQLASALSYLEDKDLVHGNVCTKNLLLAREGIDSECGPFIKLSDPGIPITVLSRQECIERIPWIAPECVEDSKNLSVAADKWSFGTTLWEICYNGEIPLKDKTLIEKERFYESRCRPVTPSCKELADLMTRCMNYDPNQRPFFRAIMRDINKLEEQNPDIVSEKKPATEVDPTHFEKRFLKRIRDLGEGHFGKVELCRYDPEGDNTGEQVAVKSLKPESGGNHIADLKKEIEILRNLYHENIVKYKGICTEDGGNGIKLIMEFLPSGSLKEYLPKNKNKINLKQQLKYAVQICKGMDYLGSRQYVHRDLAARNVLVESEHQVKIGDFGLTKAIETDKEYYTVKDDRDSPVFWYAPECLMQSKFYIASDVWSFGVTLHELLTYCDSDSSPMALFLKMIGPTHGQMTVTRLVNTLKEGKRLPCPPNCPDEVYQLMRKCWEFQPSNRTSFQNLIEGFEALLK
T2 sequence (O60674 whole entry): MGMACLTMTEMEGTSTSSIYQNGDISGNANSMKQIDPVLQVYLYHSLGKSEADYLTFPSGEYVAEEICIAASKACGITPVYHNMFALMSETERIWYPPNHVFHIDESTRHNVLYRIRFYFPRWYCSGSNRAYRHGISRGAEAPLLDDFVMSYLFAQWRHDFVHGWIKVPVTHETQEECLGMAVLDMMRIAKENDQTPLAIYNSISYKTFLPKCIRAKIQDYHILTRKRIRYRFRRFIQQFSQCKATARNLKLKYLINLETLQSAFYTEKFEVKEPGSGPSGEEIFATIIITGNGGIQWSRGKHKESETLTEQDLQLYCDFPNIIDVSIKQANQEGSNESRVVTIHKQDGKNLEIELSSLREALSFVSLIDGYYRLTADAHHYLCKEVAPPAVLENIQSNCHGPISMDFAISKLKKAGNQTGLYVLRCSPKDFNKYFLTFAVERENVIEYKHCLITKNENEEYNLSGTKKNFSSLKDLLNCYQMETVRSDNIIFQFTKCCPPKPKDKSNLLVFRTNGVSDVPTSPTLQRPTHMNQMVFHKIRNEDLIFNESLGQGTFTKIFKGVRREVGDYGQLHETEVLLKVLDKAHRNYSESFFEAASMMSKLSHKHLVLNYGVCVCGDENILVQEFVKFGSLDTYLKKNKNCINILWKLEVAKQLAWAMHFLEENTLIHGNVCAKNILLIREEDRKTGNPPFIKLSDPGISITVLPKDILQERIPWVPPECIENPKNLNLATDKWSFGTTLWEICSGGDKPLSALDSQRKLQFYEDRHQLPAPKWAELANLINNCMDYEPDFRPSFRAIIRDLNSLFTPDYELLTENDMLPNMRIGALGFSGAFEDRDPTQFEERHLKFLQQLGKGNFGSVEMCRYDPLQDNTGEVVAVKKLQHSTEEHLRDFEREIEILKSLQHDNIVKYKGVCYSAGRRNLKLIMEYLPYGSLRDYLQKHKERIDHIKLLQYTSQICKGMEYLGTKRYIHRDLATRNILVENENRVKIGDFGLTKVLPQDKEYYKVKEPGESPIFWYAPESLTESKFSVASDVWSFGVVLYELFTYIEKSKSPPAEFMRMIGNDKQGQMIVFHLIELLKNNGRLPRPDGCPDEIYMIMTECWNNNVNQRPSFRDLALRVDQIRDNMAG
T4 sequence (P29597 whole entry): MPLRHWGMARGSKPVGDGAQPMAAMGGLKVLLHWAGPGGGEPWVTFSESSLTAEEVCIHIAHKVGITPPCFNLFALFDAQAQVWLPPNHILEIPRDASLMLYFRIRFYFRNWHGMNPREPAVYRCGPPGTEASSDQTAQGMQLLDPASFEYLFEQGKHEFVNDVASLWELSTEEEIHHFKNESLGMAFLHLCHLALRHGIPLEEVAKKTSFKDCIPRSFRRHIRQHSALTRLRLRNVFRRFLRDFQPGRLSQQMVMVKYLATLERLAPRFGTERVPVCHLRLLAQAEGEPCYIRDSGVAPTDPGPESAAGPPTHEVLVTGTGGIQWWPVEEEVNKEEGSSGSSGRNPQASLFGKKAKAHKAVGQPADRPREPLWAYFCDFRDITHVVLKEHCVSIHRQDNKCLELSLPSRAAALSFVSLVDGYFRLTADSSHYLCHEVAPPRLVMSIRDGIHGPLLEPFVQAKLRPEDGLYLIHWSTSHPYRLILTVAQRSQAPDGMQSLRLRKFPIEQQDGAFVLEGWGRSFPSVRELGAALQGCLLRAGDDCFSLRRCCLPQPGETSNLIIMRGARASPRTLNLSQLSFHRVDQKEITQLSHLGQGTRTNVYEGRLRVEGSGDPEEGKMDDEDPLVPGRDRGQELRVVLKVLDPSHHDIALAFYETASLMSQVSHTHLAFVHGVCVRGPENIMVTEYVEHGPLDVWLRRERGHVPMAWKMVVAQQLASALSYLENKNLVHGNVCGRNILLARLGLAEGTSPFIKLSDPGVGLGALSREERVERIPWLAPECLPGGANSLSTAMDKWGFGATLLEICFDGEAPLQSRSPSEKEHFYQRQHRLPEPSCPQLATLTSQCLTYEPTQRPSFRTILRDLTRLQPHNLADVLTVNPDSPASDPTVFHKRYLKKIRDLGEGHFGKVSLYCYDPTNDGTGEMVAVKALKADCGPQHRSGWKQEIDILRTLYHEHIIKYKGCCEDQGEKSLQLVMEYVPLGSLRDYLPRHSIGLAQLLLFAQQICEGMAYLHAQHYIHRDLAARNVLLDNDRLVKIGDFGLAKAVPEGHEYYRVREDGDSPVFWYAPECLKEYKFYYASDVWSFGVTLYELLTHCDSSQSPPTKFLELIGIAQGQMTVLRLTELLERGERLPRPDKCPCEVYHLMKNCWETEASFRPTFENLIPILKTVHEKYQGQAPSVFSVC

IC50 (Recombinant JAK1) [µM] | IC50 (Recombinant JAK2) [µM] | IC50 (Recombinant JAK3) [µM] | IC50 (Recombinant TYK2) [µM] | IC50 [1] [µM] | IC50 [2] [µM] | SMILES
> 0.05 | > 0.1 | > 0.1 | > 1 | > 1 | > 10 | FC(F)(F)C(Cl)c1ccc(-n2cc(-c3ccnc4[nH]cnc34)cn2)nc1 (stereo not drawn) [Example 1120, 7-(1-(5-(1-chloro-2,2,2-trifluoroethyl)pyridin-2-yl)-1H-pyrazol-4-yl)-3H-imidazo[4,5-b]pyridine]
0.046 | 0.19 | < 0.5 | > 1 | 3.1 | > 10 | N#CCc1coc(-n2cc(-c3ccnc4[nH]cnc34)cn2)n1 [Example 1075, 2-(2-(4-(3H-imidazo[4,5-b]pyridin-7-yl)-1H-pyrazol-1-yl)oxazol-4-yl)acetonitrile]
> 0.1 | > 0.5 | > 0.1 | > 1 | > 10 | > 10 | CC(C(N)=O)c1ccc(-n2cc(-c3ccnc4[nH]cnc34)cn2)nc1 (stereo not drawn) [Example 1108, 2-(6-(4-(3H-imidazo[4,5-b]pyridin-7-yl)-1H-pyrazol-1-yl)pyridin-3-yl)propanamide]
< 0.5 | < 0.5 | < 0.5 | < 0.5 | < 10 | > 10 | N#CCC(NC(=O)n1cc(-c2ccnc3[nH]c(=O)[nH]c23)cn1)C(F)(F)F (stereo not drawn) [Example 1050, N-(3-cyano-1,1,1-trifluoropropan-2-yl)-4-(2,3-dihydro-2-oxo-1H-imidazo[4,5-b]pyridin-7-yl)-1H-pyrazole-1-carboxamide]
> 0.5 | > 0.5 | > 10 | > 10 | > 1 | > 10 | N#CCc1ccc(-n2cc(-c3ccnc4[nH]cnc34)cn2)c(F)c1 [Example 1103, 2-(4-(4-(3H-imidazo[4,5-b]pyridin-7-yl)-1H-pyrazol-1-yl)-3-fluorophenyl)acetonitrile]
> 10 | > 0.5 | > 1 | > 1 | > 1 | 10 | N#C[C@H](NC(=O)n1cc(-c2ccnc3[nH]c(=O)[nH]c23)cn1)C1CC1 [Example 1054, N-((R)-cyano(cyclopropyl)methyl)-4-(2,3-dihydro-2-oxo-1H-imidazo[4,5-b]pyridin-7-yl)-1H-pyrazole-1-carboxamide]
> 0.1 | > 0.1 | > 0.05 | > 1 | > 10 | > 10 | OC(c1cccc(-n2cc(-c3ccnc4[nH]cnc34)cn2)n1)C(F)(F)F (stereo not drawn) [Example 1170, 1-(6-(4-(3H-imidazo[4,5-b]pyridin-7-yl)-1H-pyrazol-1-yl)pyridin-2-yl)-2,2,2-trifluoroethanol]
< 0.5 | < 0.5 | < 0.5 | < 0.5 | > 10 | > 10 | CC(CC#N)NC(=O)n1cc(-c2ccnc3[nH]c(=O)[nH]c23)cn1 (stereo not drawn) [Example 1046, N-(1-cyanopropan-2-yl)-4-(2,3-dihydro-2-oxo-1H-imidazo[4,5-b]pyridin-7-yl)-1H-pyrazole-1-carboxamide]
> 0.1 | > 0.5 | > 0.1 | > 1 | > 1 | > 10 | CS(=O)(=O)CCC(C#N)c1ccc(-n2cc(-c3ccnc4[nH]cnc34)cn2)nc1 (stereo not drawn) [Example 1116, 2-(6-(4-(3H-imidazo[4,5-b]pyridin-7-yl)-1H-pyrazol-1-yl)pyridin-3-yl)-4-(methylsulfonyl) butanenitrile]
< 0.5 | > 0.5 | > 0.5 | > 10 | > 10 | > 10 | O=S1(=O)CCN(Cc2ccc(-n3cc(-c4ccnc5[nH]cnc45)cn3)nc2)CC1 [Example 1086, 4-((6-(4-(3H-imidazo[4,5-b]pyridin-7-yl)-1H-pyrazol-1-yl)pyridin-3-yl)methyl)thiomorpholine 1,1-dioxide]
< 1 | < 1 | < 1 | < 1 | > 1 | > 1 | N#CCC(C1CCCC1)n1cc(-c2ccnc3[nH]c(-c4ccccc4)nc23)cn1 (stereo not drawn) [Example 1180, 3-cyclopentyl-3-(4-(2-phenyl-3H-imidazo[4,5-b]pyridin-7-yl)-1H-pyrazol-1-yl)propanenitrile]
< 0.1 | < 0.1 | < 0.1 | > 1 | < 1 | > 10 | NS(=O)(=O)CCC(c1ccc(-n2cc(-c3ccnc4[nH]cnc34)cn2)nc1)C(F)(F)F (stereo not drawn) [Example 1141, 3-(6-(4-(3H-imidazo[4,5-b]pyridin-7-yl)-1H-pyrazol-1-yl)pyridin-3-yl)-4,4,4-trifluorobutane-1-sulfonamide]
< 0.1 | < 0.1 | < 0.1 | > 1 | > 0.75 | > 1 | CS(=O)(=O)NCC(c1ccc(-n2cc(-c3ccnc4[nH]cnc34)cn2)nc1)C(F)(F)F (stereo not drawn) [Example 1209]
0.096 | 0.3 | 0.173 | > 10 | 10 | > 10 | O=C(NCC(F)(F)F)C(c1ccc(-n2cc(-c3ccnc4[nH]cnc34)cn2)nc1)C1CC1 (stereo not drawn) [Example 1167, 2-(6-(4-(3H-imidazo[4,5-b]pyridin-7-yl)-1H-pyrazol-1-yl)pyridin-3-yl)-2-cyclopropyl-N-(2,2,2-trifluoroethyl)acetamide]
< 0.5 | < 0.5 | < 0.5 | < 0.5 | > 10 | > 10 | N#CC1CN(C(=O)n2cc(-c3ccnc4[nH]c(=O)[nH]c34)cn2)C1 [Example 1048, 1-(4-(2-oxo-2,3-dihydro-1H-imidazo[4,5-b]pyridin-7-yl)-1H-pyrazole-1-carbonyl)azetidine-3-carbonitrile]
> 1 | > 0.1 | > 0.5 | > 1 | > 10 | > 10 | N#CC(c1ccc(-n2cc(-c3ccnc4[nH]cnc34)cn2)nc1)N1CCS(=O)(=O)CC1 (stereo not drawn) [Example 1113, 2-(6-(4-(3H-imidazo[4,5-b]pyridin-7-yl)-1H-pyrazol-1-yl)pyridin-3-yl)-2-(1,1-dioxidothiomorpholino)acetonitrile]
< 0.5 | < 0.5 | < 0.5 | < 0.5 | > 1 | > 1 | O=C(NCC(F)(F)F)n1cc(-c2ccnc3[nH]c(-c4ccccc4)nc23)cn1 [Example 1094, N-(2,2,2-trifluoroethyl)-4-(2-phenyl-3H-imidazo[4,5-b]pyridin-7-yl)-1H-pyrazole-1-carboxamide]
